Drawing on US20230391778A1, “INDOLIN-2-ONE OR PYRROLO -PYRIDIN -2 -ONE DERIVATIVES” (Hoffmann-La Roche Inc., priority 2014, published 2023), this text covers IC50 for 35 molecules.

The target in this assay is T1, mouse ENT-1 transporter (Mus musculus, UniProt Q9JIM1).
T1 construct: expressed in transfected cells
T1 sequence (Q9JIM1 1-460): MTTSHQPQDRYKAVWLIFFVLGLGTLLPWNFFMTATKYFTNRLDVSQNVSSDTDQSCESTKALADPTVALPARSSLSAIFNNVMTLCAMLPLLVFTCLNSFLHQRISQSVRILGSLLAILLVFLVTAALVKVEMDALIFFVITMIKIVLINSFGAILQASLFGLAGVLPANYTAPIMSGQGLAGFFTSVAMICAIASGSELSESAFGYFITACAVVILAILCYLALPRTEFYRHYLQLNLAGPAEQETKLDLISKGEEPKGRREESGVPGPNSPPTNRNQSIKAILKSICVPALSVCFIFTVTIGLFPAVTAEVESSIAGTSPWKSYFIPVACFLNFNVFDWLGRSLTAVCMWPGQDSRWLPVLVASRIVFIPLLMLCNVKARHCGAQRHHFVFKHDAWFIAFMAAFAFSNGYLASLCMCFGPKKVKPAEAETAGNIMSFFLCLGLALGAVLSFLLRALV
Briefly: Measure of adenosine transport activity (ENT1 adenosine uptake inhibition). Type of assay: cell-based. The following applies: stable cells expressing mouse ENT-1, [2,8-3H]-adenosine 6 nM, 20 min. The procedure: To measure adenosine transport activity of ENT-1 mammalian cells, stable cells expressing the mouse ENT-1 transporter were plated on day 1 in 96-well culture plates at the density of 60,000 cells/well, in complete DMEM/F12 medium supplemented with glutamax, 10% FBS and 10 μg/ml puromycin. On day 2, the medium was aspirated and the cells were washed twice with uptake buffer (10 mM Hepes-Tris, pH 7.4 containing 150 mM NaCl, 1 mM CaCl2), 2.5 mM KCl, 2.5 mM MgSO4, 10 mM D-glucose) (UB). For inhibition experiments, cells were then incubated at RT with various concentrations of compounds with 1% DMSO final. Non-specific uptake was defined in the presence of 10 μM S-(4-Nitrobenzyl)-6-thioinosine (NBTI, Sigma Cat #N2255).
The plates were then incubated for 20 min with gentle shaking and the reaction was stopped by aspiration of the mixture and washing (three times) with ice-cold UB. The cells were lysed by the addition of scintillation liquid, shaken 3 hours and the radioactivity in the cells was estimated using a microplates scintillation counter (TopCount NXT, Packard).

Broadly, the IC50 is the concentration that inhibits the measured activity by half. High values mean weaker potency, low ones greater potency. In turn, `Cc1ncc(-c2ccc3c(c2)N(c2cccnc2)C(=O)C3(C)C)cn1` [Example 3, 3,3-Dimethyl-6-(2-methylpyrimidin-5-yl)-1-(pyridin-3-yl)indolin-2-one] returned an IC50 of 1780 nM. In other words, the single-digit micromolar range.

`Cc1ncc(-c2ccc3c(c2)N(c2cnc(Cl)nc2)C(=O)C3(C)C)cn1` [Example 114, 1-(2-chloropyrimidin-5-yl)-3,3-dimethyl-6-(2-methylpyrimidin-5-yl)indolin-2-one] showed an IC50 of 456 nM. For `Cc1ccc(-c2ccc3c(c2)N(c2cnc(C)cn2)C(=O)C3(C)C)cn1` [Example 148, 3,3-dimethyl-1-(5-methylpyrazin-2-yl)-6-(6-methyl-3-pyridyl)indolin-2-one] the value was 402 nM.

`Cc1cnc(-c2ccc3c(c2)N(c2ccn(C)n2)C(=O)C3(C)C)cn1` [Example 138, 3,3-dimethyl-1-(1-methyl-1H-pyrazol-3-yl)-6-(5-methylpyrazin-2-yl)indolin-2-one] showed a 50% inhibitory concentration (IC50) of 5790 nM.

Regarding `Cc1cc(N2C(=O)C(C)(C)c3ccc(-c4cnc(C)nc4)cc32)cc(Cl)n1` [Example 119, 1-(2-chloro-6-methylpyridin-4-yl)-3,3-dimethyl-6-(2-methylpyrimidin-5-yl)indolin-2-one], the IC50 was 335 nM.

With `Cc1ncc(-c2ccc3c(c2)N(c2cccnn2)C(=O)C3(C)C)cn1` [Example 76, 3,3-dimethyl-6-(2-methylpyrimidin-5-yl)-1-(pyridazin-3-yl)indolin-2-one], the midpoint of inhibition, the IC50, lay at 2100 nM. For the molecule `Cc1ncc(-c2ccc3c(c2)N(c2ccc(C4CC4)nn2)C(=O)C3(C)C)cn1` [Example 134, 1-(6-cyclopropylpyridazin-3-yl)-3,3-dimethyl-6-(2-methylpyrimidin-5-yl)indolin-2-one], the IC50 worked out at 36 nM. For `Cc1cc(-c2ccc3c(c2)N(c2cncc(C)n2)C(=O)C3(C)C)ccn1` [Example 144, 3,3-dimethyl-1-(6-methylpyrazin-2-yl)-6-(2-methyl-4-pyridyl)indolin-2-one], the IC50 was 3510 nM. The result for `Cc1ncc(-c2ccc3c(c2)N(c2ccccn2)C(=O)C3(C)C)cn1` [Example 44, 3,3-Dimethyl-6-(2-methylpyrimidin-5-yl)-1-(pyridin-2-yl)indolin-2-one] reads 1400 nM; that for `Cc1ncc(-c2ccc3c(c2)N(c2nnc(C)o2)C(=O)C3(C)C)cn1` [Example 51, 3,3-Dimethyl-1-(5-methyl-1,3,4-oxadiazol-2-yl)-6-(2-methylpyrimidin-5-yl)indolin-2-one], 1850 nM; that for `Cc1ncc(-c2ccc3c(c2)N(c2cc(C4CC4)cnn2)C(=O)C3(C)C)cn1` [Example 130, 1-(5-cyclopropylpyridazin-3-yl)-3,3-dimethyl-6-(2-methylpyrimidin-5-yl)indolin-2-one], 2370 nM.

Molecule `Cc1cc(N2C(=O)C(C)(C)c3ccc(-n4cnc(C(C)C)c4)cc32)ccn1` [Example 36, 6-(4-Isopropylimidazol-1-yl)-3,3-dimethyl-1-(2-methyl-4-pyridyl)indolin-2-one] showed an IC50 of 2460 nM. Molecule `Cc1cnc(N2C(=O)C(C)(C)c3ccc(-c4cnc(C)nc4)cc32)cn1` [Example 57, 3,3-Dimethyl-1-(5-methylpyrazin-2-yl)-6-(2-methylpyrimidin-5-yl)indolin-2-one] displayed an IC50 of 27 nM. Against the preceding molecule, the IC50 is about 91-fold lower. `Cc1ncc(-c2ccc3c(c2)N(c2cnccc2C)C(=O)C3(C)C)cn1` [Example 99, 3,3-dimethyl-1-(4-methylpyridin-3-yl)-6-(2-methylpyrimidin-5-yl)indolin-2-one]: inhibition was half-maximal at 4330 nM (IC50). For `Cc1ccc(-c2ccc3c(c2)N(c2ccnc(C)c2)C(=O)C3(C)C)cn1` [Example 19, 3,3-Dimethyl-6-(6-methylpyridin-3-yl)-1-(2-methylpyridin-4-yl)indolin-2-one], the IC50 worked out at 3450 nM. Take `Cc1ncc(-c2ccc3c(c2)N(c2cnc(CF)nc2)C(=O)C3(C)C)cn1` [Example 108, 1-(2-(fluoromethyl)pyrimidin-5-yl)-3,3-dimethyl-6-(2-methylpyrimidin-5-yl)indolin-2-one]: the IC50 stood at 1900 nM. This IC50 is about 1.8-fold lower than that of the molecule before. The result for `Cc1cccc(N2C(=O)C(C)(C)c3ccc(-c4cnc(C)nc4)cc32)n1` [Example 61, 3,3-Dimethyl-1-(6-methylpyridin-2-yl)-6-(2-methylpyrimidin-5-yl)indolin-2-one] reads 946 nM; that for `Cc1ccc(N2C(=O)C(C)(C)c3ccc(-c4cnc(C)nc4)cc32)nc1` [Example 56, 3,3-Dimethyl-1-(5-methylpyridin-2-yl)-6-(2-methylpyrimidin-5-yl)indolin-2-one], 316 nM; that for `Cc1ncc(-c2ccc3c(c2)N(c2ccc(C)s2)C(=O)C3(C)C)cn1` [Example 27, 3,3-Dimethyl-6-(2-methylpyrimidin-5-yl)-1-(5-methylthiophen-2-yl)indolin-2-one], 355 nM. The result for `Cc1ncc(-c2ccc3c(c2)N(c2cn[nH]c2)C(=O)C3(C)C)cn1` [Example 83, 3,3-dimethyl-6-(2-methylpyrimidin-5-yl)-1-(1H-pyrazol-4-yl)indolin-2-one] reads 4660 nM; that for `Cc1ccnc(N2C(=O)C(C)(C)c3ccc(-c4cnc(C)nc4)cc32)c1` [Example 60, 3,3-Dimethyl-1-(4-methylpyridin-2-yl)-6-(2-methylpyrimidin-5-yl)indolin-2-one], 3780 nM; that for `Cc1ncc(-c2ccc3c(c2)N(c2cc(Cl)nc(Cl)c2)C(=O)C3(C)C)cn1` [Example 115, 1-(2,6-dichloropyridin-4-yl)-3,3-dimethyl-6-(2-methylpyrimidin-5-yl)indolin-2-one], 144 nM.

As for `CCc1cncc(N2C(=O)C(C)(C)c3ccc(-c4cnc(C)nc4)cc32)c1` [Example 156, 1-(5-ethylpyridin-3-yl)-3,3-dimethyl-6-(2-methylpyrimidin-5-yl)indolin-2-one], the IC50 stood at 300 nM.

For `Cc1ccc(-c2ccc3c(c2)N(c2cn(C)cn2)C(=O)C3(C)C)cn1` [Example 10, 3,3-Dimethyl-1-(1-methyl-1H-imidazol-4-yl)-6-(6-methylpyridin-3-yl)indolin-2-one], half-maximal inhibition (IC50) was put at 5880 nM. The result for `Cc1cncc(N2C(=O)C(C)(C)c3ccc(-c4ccnc(C)n4)cc32)n1` [Example 154, 3,3-dimethyl-1-(6-methylpyrazin-2-yl)-6-(2-methylpyrimidin-4-yl)indolin-2-one] reads 4470 nM; that for `Cc1cncc(-c2ccc3c(c2)N(c2cnc(C)cn2)C(=O)C3(C)C)c1` [Example 149, 3,3-dimethyl-1-(5-methylpyrazin-2-yl)-6-(5-methyl-3-pyridyl)indolin-2-one], 207 nM. For `Cc1ncc(N2C(=O)C(C)(C)c3ccc(-n4cnc(C(C)C)c4)cc32)cn1` [Example 38, 6-(4-Isopropylimidazol-1-yl)-3,3-dimethyl-1-(2-methylpyrimidin-5-yl)indolin-2-one] the value was 426 nM; for `Cc1cnc(-c2ccc3c(c2)N(c2ccc(C)nn2)C(=O)C3(C)C)cn1` [Example 137, 3,3-dimethyl-6-(5-methylpyrazin-2-yl)-1-(6-methylpyridazin-3-yl)indolin-2-one], 4070 nM. For `Cc1ccc(N2C(=O)C(C)(C)c3ccc(-c4cnc(C)nc4)cc32)cn1` [Example 12, 3,3-Dimethyl-1-(6-methylpyridin-3-yl)-6-(2-methylpyrimidin-5-yl)indolin-2-one] the value was 148 nM; for `Cc1ncc(-c2ccc3c(c2)N(c2cncc(F)c2)C(=O)C3(C)C)cn1` [Example 142, 1-(5-fluoropyridin-3-yl)-3,3-dimethyl-6-(2-methylpyrimidin-5-yl)indolin-2-one], 765 nM; for `Cc1ncc(-c2ccc3c(c2)N(c2ccncc2Cl)C(=O)C3(C)C)cn1` [Example 52, 1-(3-Chloropyridin-4-yl)-3,3-dimethyl-6-(2-methylpyrimidin-5-yl)indolin-2-one], 6960 nM. The molecule `Cc1ncc(-c2ccc3c(c2)N(c2ncccn2)C(=O)C3(C)C)cn1` [Example 79, 3,3-dimethyl-6-(2-methylpyrimidin-5-yl)-1-(pyrimidin-2-yl)indolin-2-one] came in with an IC50 of 3880 nM. This IC50 is about 1.8-fold lower than that of the molecule before. In the case of `Cc1ncc(-c2ccc3c(c2)N(c2cn(C)nn2)C(=O)C3(C)C)cn1` [Example 87, 3,3-dimethyl-1-(1-methyl-1H-1,2,3-triazol-4-yl)-6-(2-methylpyrimidin-5-yl)indolin-2-one], the IC50 was 2070 nM. Take `Cc1cccc(-c2ccc3c(c2)N(c2cncc(C)n2)C(=O)C3(C)C)n1` [Example 135, 3,3-dimethyl-1-(6-methylpyrazin-2-yl)-6-(6-methyl-2-pyridyl)indolin-2-one]: the IC50 is 2280 nM. The IC50 values of the last two molecules are within 1.5-fold of each other. The molecule “3,3-dimethyl-6-(2-methylpyrimidin-5-yl)-1-(1-(2,2,2-trifluoroethyl)-1H-pyrazol-3-yl)indolin-2-one [Example 139]” yielded an IC50 of 140 nM.
